What was measured:
[1] = tested on: Escherichia coli wild type strain CA 8000; assay: UV protection assay for bacteria cultivated in presence of the compounds; format: cell-based; conditions: for Titre estimated (cfu), Initial: bacteria grown in presence of compound, before UV exposure, control 3.73 × 10^7; for Killing % in comparison to the control: bacteria grown with compound, UV exposed
Text: (§1) UV light is not only harmful to humans but also to all other biological systems including microorganisms. The majority of the studies of the effect of UV light on microbes and its modes of action have shown the formation of thymidine dimers, which cause mutations and excessive exposure thus leads to death of the bacteria. […] Therefore, the assays involving the screening of potential UV protectant compounds against bacterial system exposure in presence and absence of test compound is easy, less time consuming and environmentally safe. We carried out simple experiments involving the bacterium Escherichia coli (Wild type) (Kumar, 5. 1976. Journal of Bacteriology, 125: 545-555) as the test system. Escherichia coli is a Gram negative bacterium and sensitive to ultraviolet light. The bacterial cells were grown in broth cultures were exposed to UV light for different time periods and the survival in terms of colony forming units was determined to estimate the killing percentage. The experiments comprised of a series of different steps in two distinct manners/routes (Example 1 and 2 below). In these examples, various quantities were mentioned are not confined to the said limits but can be variable depending upon the need and scale of experiment or screen to be employed. Two different approaches as described below were followed. In one case, the bacterial cells were grown in presence of the test compound and then exposed to UV while, in other case the bacteria were exposed to the two wavelength of UV light filtered through a UV transparent film coated with the compound and using uncoated film as control.
UV Protection Assays for the Bacteria Cultivated in Presence of the Compounds
(§2) Step A: Growing bacterial cultures: The wild type strain CA 8000 of Escherichia coli was in the assays. A single colony was inoculated in 5 ml Luria broth and incubated at 37° C. temperature for 16 hour in a water bath shaker. Bacteria were grown in presence of test compounds with plain LB as growth medium.
Step B: Determining killing percentage of bacteria in relation to UV exposure time: This was done in the following steps.
a. The broth culture was diluted to 10 times in sterile water.
b. About 0.3 ml of the diluted bacterial suspension was transferred to the petriplates forming a thin layer at the bottom (in replicates).
c. In the dark room a UV source was placed at least 10 cm above the plates (This distance may vary depending upon the need of the experiment)
d. The cfu (colony forming unit) count was determined by serially diluting the exposed and control bacteria and plating on the Luria agar plate followed by counting the viable units of the bacteria forming colonies upon incubation at 37° C. overnight.
These two exposure levels were used further in our experiment to test the efficacy of different compounds for UV protection.
Step C: The bacterial cultures were grown in presence of different concentrations of the test compounds, exposed in the same way as in step B and viable cfu count was determined.

[2] = tested on: Escherichia coli wild type strain CA 8000; assay: UV protection assay through compound-coated UV transparent film; format: cell-based; conditions: for Protection (%) / Titre after UV exposure, film coated with menthyl benzoate / Killing (%), film coated with menthyl benzoate: film coated 50 μg per ml, 312 nm; for Titre after UV exposure, film coated with menthyl benzoate: initial titre 2.490 × 10^8
Text: as §1
Exposure of the Bacteria to UV Light Through a UV Transparent Film Coated with the Compound
as §2, with “wild type strain, CA 8000” for “wild type strain CA 8000”, “coli was used in the” for “coli was in the”
Step B: The bacterial culture was harvested by centrifugation and pellet was suspended in equal amount of sterile distilled water. The bacterial pellet was harvested by centrifuging at 5000 RPM for 10 minute and suspended in 25 ml sterile distilled water.
Step C: About 0.3 ml of the broth culture of the bacteria was transferred to petriplates forming a thin layer at the bottom (in replicates). At least 5 replicates per treatment were used along with control plates containing bacteria.
Step D: The plates were covered with UV transparent film, which was coated with different concentrations of the test compounds.
Step E: In the dark room a UV source was placed at least 10 cm above the plates (which may vary depending upon the experiment). In this invention, the UV torch emitting two-fixed wavelength (312 nm and 365 nm) was used.
Step F: Light source was switched-on for different time intervals for the predetermined lethality levels based on the killing curve of control bacteria determined by UV exposure through uncoated film.
Step G: The viable cfu (colony forming unit) count was determined by serially diluting the exposed and control bacteria and then plating on the Luria agar plates followed by counting the viable units of the bacteria forming colonies (Table 1).

[3] = 120 seconds UV exposure (LD70), control 1.119 × 10^7
[4] = 120 seconds UV exposure, control 70.00%
[5] = 150 seconds UV exposure (LD80), control 0.746 × 10^7
[6] = 150 seconds UV exposure, control 80.00%
[7] = UV exposure equivalent to lethality level 10%
[8] = UV exposure equivalent to lethality level 25%
[9] = UV exposure equivalent to lethality level 50%

SMILES	Titre estimated (cfu), final after UV exposure [1, 3]	Killing (%) after UV exposure [1, 4] [%]	Titre estimated (cfu), final after UV exposure [1, 5]	Killing (%) after UV exposure [1, 6] [%]	Titre estimated (cfu), Initial [1]	Killing % in comparison to the control [1]	Protection (%) [2, 7] [%]	Titre after UV exposure, film coated with menthyl benzoate [2, 7]	Killing (%), film coated with menthyl benzoate ([2]; UV exposure equivalent to lethality level 10%, uncoated film 10.04%) [%]	Protection (%) [2, 8] [%]	Titre after UV exposure, film coated with menthyl benzoate [2, 8]	Killing (%), film coated with menthyl benzoate ([2]; UV exposure equivalent to lethality level 25%, uncoated film 25.02%) [%]	Protection (%) [2, 9] [%]	Titre after UV exposure, film coated with menthyl benzoate [2, 9]	Killing (%), film coated with menthyl benzoate ([2]; UV exposure equivalent to lethality level 50%, uncoated film 50.12%) [%]	Effect on percentage of lethality of the bacteria ([2]; at all levels of lethality tested)	Most optimum concentration coated on the film for UV protection ([2]; out of all concentrations coated on the film, higher concentration does not substantially increase protection) [μg per ml]	UV protection in comparison to other known UV protectants ([1]; 50 μg/ml in culture)	Protection efficiency, comparison between compounds ([1]; descending series of the three compounds)	Safety to the bacterial system: titre (cfu) when bacteria are grown in presence of the compound ([1]; treated versus untreated cultures, no UV)
O=C(OCc1ccccc1)c1ccccc1 [Benzyl benzoate, Benzyl Benzoate]	1.460 × 10^7 cfu	60.86	1.240 × 10^7 cfu	66.75	3.73 × 10^7 cfu	much less in comparison to the control														
O=C(CC(=O)c1ccccc1)c1ccccc1 [Dibenzoyl methane]	1.162 × 10^7 cfu	68.85	1.050 × 10^7 cfu	71.85	3.73 × 10^7 cfu	much less in comparison to the control														
CC1CCC(C(C)C)C(OC(=O)c2ccccc2)C1 (stereo not shown) [Menthyl benzoate, Menthyl Benzoate]	1.660 × 10^7 cfu	55.49	1.300 × 10^7 cfu	65.15	3.73 × 10^7 cfu		70.01	2.415 × 10^8 cfu per ml	3.01	24.58	2.020 × 10^8 cfu per ml	18.87	12.67	1.400 × 10^8 cfu per ml	43.77	reduced the percentage of lethality of the bacteria	50	significant protection	better protectant than the commercially used dibenzoyl methane	no decrease of titre was observed

Source: patent US6831100B2, “Menthyl benzoate formulations for external UV protection” (priority 2000, dated 2004)
